Test results taken from the Kinase Knowledgebase extract (Sharma et al. 2016).

Tests used:
[1] = target: PIK3CD (Human) (UniProt O00329); assay: Assessment of PIK3CD Kinase Activity
[2] = target: PIK3CG (human) (UniProt P48736); assay: Assessment of PIK3CG Kinase Activity
[3] = target: PIK3CA (human) (UniProt P42336); assay: Assessment of PIK3CA Kinase Activity
[4] = target: PIK3CD (Human) (UniProt O00329); assay: Assessment of PIK3CD Kinase Activity in RAJI Cells
[5] = target: PIK3CB (Human) (UniProt P42338); assay: Assessment of PIK3CB Kinase Activity
PIK3CB (Human), sequence (P42338 whole entry, looked up): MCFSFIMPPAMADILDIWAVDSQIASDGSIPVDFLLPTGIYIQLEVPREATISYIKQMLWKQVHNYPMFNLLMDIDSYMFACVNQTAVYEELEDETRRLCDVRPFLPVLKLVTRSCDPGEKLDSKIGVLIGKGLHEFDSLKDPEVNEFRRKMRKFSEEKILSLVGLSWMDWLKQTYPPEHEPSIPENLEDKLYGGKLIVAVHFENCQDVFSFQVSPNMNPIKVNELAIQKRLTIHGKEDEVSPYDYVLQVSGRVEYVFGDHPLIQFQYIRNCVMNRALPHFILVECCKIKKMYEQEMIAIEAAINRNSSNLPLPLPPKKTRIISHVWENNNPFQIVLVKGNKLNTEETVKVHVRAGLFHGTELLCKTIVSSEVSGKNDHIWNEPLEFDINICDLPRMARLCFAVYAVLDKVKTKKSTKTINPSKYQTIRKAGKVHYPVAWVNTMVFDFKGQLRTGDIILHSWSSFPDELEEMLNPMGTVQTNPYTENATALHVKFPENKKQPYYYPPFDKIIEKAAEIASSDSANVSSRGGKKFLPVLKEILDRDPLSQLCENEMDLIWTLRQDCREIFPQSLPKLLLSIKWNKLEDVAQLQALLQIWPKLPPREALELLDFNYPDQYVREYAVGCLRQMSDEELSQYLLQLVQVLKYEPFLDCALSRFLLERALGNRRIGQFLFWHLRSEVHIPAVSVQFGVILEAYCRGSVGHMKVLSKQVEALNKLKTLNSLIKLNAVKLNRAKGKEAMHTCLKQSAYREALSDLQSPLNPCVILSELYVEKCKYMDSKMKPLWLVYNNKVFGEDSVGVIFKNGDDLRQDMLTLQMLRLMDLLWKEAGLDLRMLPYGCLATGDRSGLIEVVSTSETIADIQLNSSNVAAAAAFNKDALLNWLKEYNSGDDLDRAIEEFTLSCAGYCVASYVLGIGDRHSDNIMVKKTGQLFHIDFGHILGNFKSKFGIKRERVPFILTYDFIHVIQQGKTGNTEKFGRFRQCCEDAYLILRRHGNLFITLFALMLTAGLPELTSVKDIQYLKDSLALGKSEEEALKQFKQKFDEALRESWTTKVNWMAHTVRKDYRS

PIK3CD (Human), sequence (O00329 whole entry, looked up): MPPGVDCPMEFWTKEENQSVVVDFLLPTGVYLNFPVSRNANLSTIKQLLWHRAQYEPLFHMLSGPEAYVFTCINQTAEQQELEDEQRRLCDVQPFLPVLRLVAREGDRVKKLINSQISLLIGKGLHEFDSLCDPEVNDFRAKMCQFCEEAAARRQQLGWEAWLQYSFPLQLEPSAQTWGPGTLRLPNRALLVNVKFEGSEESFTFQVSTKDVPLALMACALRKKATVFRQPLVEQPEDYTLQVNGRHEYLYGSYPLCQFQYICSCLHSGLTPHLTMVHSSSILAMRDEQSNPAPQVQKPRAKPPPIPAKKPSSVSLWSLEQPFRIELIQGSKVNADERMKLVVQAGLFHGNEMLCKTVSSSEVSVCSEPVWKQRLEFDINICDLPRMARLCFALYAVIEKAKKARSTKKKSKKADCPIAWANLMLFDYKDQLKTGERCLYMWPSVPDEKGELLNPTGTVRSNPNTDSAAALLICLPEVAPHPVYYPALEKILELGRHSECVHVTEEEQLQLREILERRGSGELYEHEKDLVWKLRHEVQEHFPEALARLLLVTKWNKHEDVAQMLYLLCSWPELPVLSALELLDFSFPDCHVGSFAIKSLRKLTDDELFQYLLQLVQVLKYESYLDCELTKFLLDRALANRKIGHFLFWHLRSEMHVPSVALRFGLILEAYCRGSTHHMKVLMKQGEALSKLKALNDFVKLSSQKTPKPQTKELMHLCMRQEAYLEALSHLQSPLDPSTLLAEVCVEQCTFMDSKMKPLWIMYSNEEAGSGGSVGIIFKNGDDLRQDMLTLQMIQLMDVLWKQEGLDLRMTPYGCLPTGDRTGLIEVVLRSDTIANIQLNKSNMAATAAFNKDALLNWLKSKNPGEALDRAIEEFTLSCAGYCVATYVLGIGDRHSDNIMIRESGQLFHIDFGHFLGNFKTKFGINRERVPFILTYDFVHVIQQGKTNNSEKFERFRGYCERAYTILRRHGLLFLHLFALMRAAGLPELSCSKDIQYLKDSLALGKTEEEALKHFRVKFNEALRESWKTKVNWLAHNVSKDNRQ
PIK3CG (human), sequence (P48736 whole entry, looked up): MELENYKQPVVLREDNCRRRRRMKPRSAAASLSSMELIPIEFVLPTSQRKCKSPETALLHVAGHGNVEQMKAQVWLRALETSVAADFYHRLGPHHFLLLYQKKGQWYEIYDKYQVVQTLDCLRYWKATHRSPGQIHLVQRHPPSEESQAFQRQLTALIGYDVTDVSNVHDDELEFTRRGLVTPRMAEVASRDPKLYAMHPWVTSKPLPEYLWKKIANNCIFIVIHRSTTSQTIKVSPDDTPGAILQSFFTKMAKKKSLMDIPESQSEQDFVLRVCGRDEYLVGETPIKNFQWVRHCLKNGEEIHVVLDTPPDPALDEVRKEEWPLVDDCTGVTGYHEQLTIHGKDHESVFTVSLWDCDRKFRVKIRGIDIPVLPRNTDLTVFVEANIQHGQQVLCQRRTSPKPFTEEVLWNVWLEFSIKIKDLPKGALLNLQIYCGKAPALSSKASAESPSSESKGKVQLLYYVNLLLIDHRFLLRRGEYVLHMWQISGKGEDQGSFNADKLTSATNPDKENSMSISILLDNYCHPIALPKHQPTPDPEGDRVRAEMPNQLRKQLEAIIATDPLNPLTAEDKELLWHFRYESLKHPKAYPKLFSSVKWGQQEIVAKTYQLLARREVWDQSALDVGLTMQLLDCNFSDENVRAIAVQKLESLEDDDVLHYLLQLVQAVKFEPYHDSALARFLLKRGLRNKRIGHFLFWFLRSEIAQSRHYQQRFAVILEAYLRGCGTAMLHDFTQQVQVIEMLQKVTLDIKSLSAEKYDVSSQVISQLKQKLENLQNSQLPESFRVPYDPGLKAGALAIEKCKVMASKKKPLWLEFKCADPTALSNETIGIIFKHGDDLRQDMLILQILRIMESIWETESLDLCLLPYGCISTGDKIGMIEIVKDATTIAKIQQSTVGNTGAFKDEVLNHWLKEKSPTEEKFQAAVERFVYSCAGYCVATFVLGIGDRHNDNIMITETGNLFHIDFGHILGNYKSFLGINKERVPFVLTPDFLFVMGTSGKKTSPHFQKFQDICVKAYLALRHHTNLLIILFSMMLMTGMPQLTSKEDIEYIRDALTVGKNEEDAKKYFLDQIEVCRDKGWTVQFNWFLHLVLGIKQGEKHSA
PIK3CA (human), sequence (P42336 whole entry, looked up): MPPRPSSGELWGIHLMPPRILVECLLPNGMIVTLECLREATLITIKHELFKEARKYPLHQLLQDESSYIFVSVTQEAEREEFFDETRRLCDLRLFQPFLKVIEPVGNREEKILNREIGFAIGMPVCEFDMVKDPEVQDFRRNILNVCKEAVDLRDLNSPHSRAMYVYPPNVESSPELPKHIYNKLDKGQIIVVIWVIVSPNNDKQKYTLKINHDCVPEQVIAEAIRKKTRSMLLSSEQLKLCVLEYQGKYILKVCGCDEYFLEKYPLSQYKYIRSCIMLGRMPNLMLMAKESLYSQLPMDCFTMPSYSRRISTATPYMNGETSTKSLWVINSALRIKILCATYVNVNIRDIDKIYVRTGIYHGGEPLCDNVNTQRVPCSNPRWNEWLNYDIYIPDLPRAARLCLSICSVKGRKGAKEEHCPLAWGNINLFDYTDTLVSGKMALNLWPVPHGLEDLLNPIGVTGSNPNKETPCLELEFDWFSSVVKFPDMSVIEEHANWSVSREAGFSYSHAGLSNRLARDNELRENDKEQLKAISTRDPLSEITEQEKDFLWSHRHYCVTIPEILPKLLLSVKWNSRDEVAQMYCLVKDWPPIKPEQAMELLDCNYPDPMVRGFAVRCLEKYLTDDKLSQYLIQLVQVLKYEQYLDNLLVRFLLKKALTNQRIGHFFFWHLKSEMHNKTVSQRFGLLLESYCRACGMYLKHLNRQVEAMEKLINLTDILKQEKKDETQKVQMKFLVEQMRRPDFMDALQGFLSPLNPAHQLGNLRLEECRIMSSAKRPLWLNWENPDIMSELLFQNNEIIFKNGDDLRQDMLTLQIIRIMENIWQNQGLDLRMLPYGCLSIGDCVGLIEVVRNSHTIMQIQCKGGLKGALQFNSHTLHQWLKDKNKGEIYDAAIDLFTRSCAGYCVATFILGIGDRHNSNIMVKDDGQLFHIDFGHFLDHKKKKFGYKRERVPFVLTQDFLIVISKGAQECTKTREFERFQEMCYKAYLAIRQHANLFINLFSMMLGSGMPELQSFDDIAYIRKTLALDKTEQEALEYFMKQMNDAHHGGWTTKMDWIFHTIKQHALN

Row | Structure (SMILES) | IC50 [1] [nM] | IC50 [2] [nM] | IC50 [3] [nM] | IC50 [4] [nM] | IC50 [5] [nM]
1 | C[C@H](Nc1nc(N)ncc1-c1cccc(S(C)(=O)=O)c1)c1cc2cccc(C(F)(F)F)c2c(=O)n1-c1ccccc1 | 100 to 1000 | 100 to 1000 | – | < 100 | –
2 | C[C@H](Nc1ncnc(N)c1C#N)c1cc2cccc(Cl)c2c(C(=O)NC2CCOCC2)n1 | 100 to 1000 | – | > 10000 | < 100 | > 10000
3 | COc1ncc(-c2cccc3cc([C@H](C)Nc4nc(N)ncc4C#N)n(-c4ccon4)c(=O)c23)cn1 | 100 to 1000 | – | > 10000 | < 100 | > 10000
4 | COC(=O)c1cccc(-n2c([C@H](C)Nc3nc(N)ncc3C#N)cc3cccc(Cl)c3c2=O)c1 | 100 to 1000 | – | – | < 100 | > 10000
5 | C[C@H](Nc1ncnc(N)c1C#N)c1cc2cccc(Cl)c2c(=O)n1-c1ccon1 | 100 to 1000 | 100 to 1000 | > 10000 | < 100 | > 10000
6 | Cc1ncc(-c2cccc3cc([C@H](C)Nc4ncnc(N)c4C#N)n(-c4ccon4)c(=O)c23)cn1 | 100 to 1000 | > 10000 | > 10000 | < 100 | > 10000
7 | C[C@H](Nc1ncncc1-c1cccc(S(=O)(=O)N(C)C)c1)c1cc2cccc(Cl)c2c(=O)n1-c1ccccc1 | 100 to 1000 | 100 to 1000 | – | < 100 | > 10000
8 | CC(C)n1c([C@H](C)Nc2ncnc(N)c2C#N)cc2cccc(Cl)c2c1=O | < 100 | 100 to 1000 | – | < 100 | –
9 | C[C@H](Nc1nc(N)ncc1C#N)c1cc2cccc(-c3ccc(=O)n(C)c3)c2c(=O)n1-c1ccon1 | – | 100 to 1000 | – | < 100 | –
10 | COc1ncc(-c2cccc3cc([C@H](C)Nc4ncnc(N)c4C#N)n(-c4ccon4)c(=O)c23)cn1 | 100 to 1000 | – | – | < 100 | > 10000
11 | C[C@H](Nc1nc(N)ncc1C#N)c1cc2cccc(Cl)c2c(=O)n1-c1cccc(C#N)c1 | < 100 | 100 to 1000 | – | < 100 | 100 to 1000
12 | C[C@H](Nc1nc(N)ncc1-c1cncc(S(C)(=O)=O)c1)c1cc2cccc(Cl)c2c(=O)n1-c1ccccc1 | – | 100 to 1000 | – | < 100 | –
13 | Cc1ncc(-c2cccc3cc([C@H](C)Nc4nc(N)ncc4C#N)n(-c4ccon4)c(=O)c23)cn1 | < 100 | – | > 10000 | < 100 | > 10000
14 | COc1ncc(-c2cccc3cc([C@H](C)Nc4nc(N)ncc4C#N)n(C(C)C)c(=O)c23)cn1 | < 100 | 100 to 1000 | – | < 100 | > 10000
15 | CCOc1nc(-c2cnc(N)nc2N[C@@H](C)c2cc3cccc(-c4cnc(OC)nc4)c3c(=O)n2-c2ccccc2)cs1 | < 100 | 100 to 1000 | – | < 100 | –
16 | C[C@H](Nc1nc(N)ncc1-c1ccc(S(C)(=O)=O)nc1)c1cc2cccc(Cl)c2c(=O)n1-c1ccccc1 | – | 100 to 1000 | > 10000 | < 100 | –
17 | N#Cc1cnc(N)nc1NCc1cc2cccc(Cl)c2c(=O)n1-c1ccccc1 | < 100 | 100 to 1000 | – | < 100 | –
18 | C[C@H](Nc1nc(N)ncc1C(=O)C1CC1)c1cc2cccc(Cl)c2c(=O)n1-c1ccccc1 | – | – | – | < 100 | > 10000
19 | COc1cc(-c2cccc3cc([C@@H](C)Nc4nc(N)ncc4C#N)n(-c4ccccc4)c(=O)c23)ccn1 | < 100 | 100 to 1000 | > 10000 | – | > 10000
20 | C[C@H](Nc1nc(N)ncc1C#N)c1cc2cccc(Cl)c2c(=O)n1-c1c(F)cccc1F | – | 100 to 1000 | > 10000 | < 100 | –
21 | CC(C)C(=O)c1cnc(N)nc1N[C@@H](C)c1cc2cccc(Cl)c2c(=O)n1-c1ccccc1 | 100 to 1000 | 100 to 1000 | – | < 100 | > 10000
22 | CCS(=O)(=O)c1cccc(-c2cnc(N)nc2N[C@@H](C)c2cc3cccc(Cl)c3c(=O)n2-c2ccccc2)c1 | 100 to 1000 | > 10000 | – | < 100 | 100 to 1000
23 | C[C@H](Nc1nc(N)ncc1C#N)c1cc2cccc(Cl)c2c(=O)n1-c1ccc(F)cc1 | 100 to 1000 | 100 to 1000 | > 10000 | – | > 10000

Continued, values first:

Row | IC50 [1] [nM] | IC50 [2] [nM] | IC50 [3] [nM] | IC50 [4] [nM] | IC50 [5] [nM] | Structure (SMILES)
24 | < 100 | < 100 | > 10000 | < 100 | – | C[C@H](Nc1nc(N)ncc1-c1cnc(S(C)(=O)=O)s1)c1cc2cccc(Cl)c2c(=O)n1-c1ccccc1
25 | 100 to 1000 | < 100 | – | < 100 | 100 to 1000 | CNS(=O)(=O)c1cccc(-c2cnc(N)nc2N[C@@H](C)c2cc3cccc(Cl)c3c(=O)n2-c2ccccc2)c1
26 | – | < 100 | – | < 100 | – | C[C@H](Nc1nc(N)ncc1C#N)c1cc2cccc(-c3cncc(NS(C)(=O)=O)c3)c2c(=O)n1-c1ccccc1
27 | 100 to 1000 | < 100 | 100 to 1000 | < 100 | 100 to 1000 | C[C@H](Nc1nc(N)ncc1-c1cccc(S(=O)(=O)N2CCCCC2)c1)c1cc2cccc(Cl)c2c(=O)n1-c1ccccc1
28 | 100 to 1000 | < 100 | – | < 100 | > 10000 | C[C@H](Nc1nc(N)ncc1-c1cccc(S(N)(=O)=O)c1)c1cc2cccc(Cl)c2c(=O)n1-c1ccccc1
29 | 100 to 1000 | < 100 | > 10000 | < 100 | – | COc1cccc(-n2c([C@H](C)Nc3nc(N)ncc3C#N)cc3cccc(Cl)c3c2=O)c1
30 | < 100 | < 100 | > 10000 | < 100 | > 10000 | C[C@H](Nc1nc(N)ncc1-c1cscn1)c1cc2cccc(-c3ccc(=O)n(C)c3)c2c(=O)n1-c1ccccc1
31 | < 100 | < 100 | 100 to 1000 | < 100 | – | COc1cc(-c2cccc3cc([C@H](C)Nc4nc(N)ncc4C#N)n(-c4ccccc4)c(=O)c23)ccn1
32 | – | < 100 | > 10000 | < 100 | – | C[C@H](Nc1nc(N)ncc1C#N)c1cc2cccc(Cl)c2c(=O)n1C1CC1
33 | < 100 | < 100 | 100 to 1000 | < 100 | 100 to 1000 | C[C@H](Nc1nc(N)ncc1-c1cccc(S(=O)(=O)N(C)C)c1)c1cc2cccc(Cl)c2c(=O)n1-c1ccccc1
34 | < 100 | < 100 | – | < 100 | – | COc1ncc(-c2cccc3cc([C@H](C)Nc4nc(N)ncc4-c4cncs4)n(-c4ccccc4)c(=O)c23)cn1
35 | < 100 | < 100 | > 10000 | < 100 | – | Cc1ccc(NS(C)(=O)=O)cc1-c1cnc(N)nc1N[C@@H](C)c1cc2cccc(Cl)c2c(=O)n1-c1ccccc1
36 | 100 to 1000 | < 100 | > 10000 | < 100 | > 10000 | C[C@H](Nc1nc(N)ncc1-c1ccoc1)c1cc2cccc(Cl)c2c(=O)n1-c1ccccc1
37 | 100 to 1000 | < 100 | – | < 100 | – | C[C@H](Nc1nc(N)ncc1-c1cccc(S(C)(=O)=O)c1)c1cc2cccc(Cl)c2c(=O)n1-c1ccccc1
38 | 100 to 1000 | < 100 | – | < 100 | – | C[C@H](Nc1nc(N)ncc1-c1cccc(N(C)S(C)(=O)=O)c1)c1cc2cccc(Cl)c2c(=O)n1-c1ccccc1
39 | < 100 | < 100 | – | < 100 | – | C[C@H](Nc1nc(N)ncc1-c1cccc(S(=O)(=O)C2CC2)c1)c1cc2cccc(Cl)c2c(=O)n1-c1ccccc1
40 | < 100 | < 100 | – | < 100 | – | C[C@H](Nc1nc(N)ncc1-c1cccc(NS(C)(=O)=O)c1)c1cc2cccc(Cl)c2c(=O)n1-c1ccccc1
41 | – | < 100 | > 10000 | < 100 | – | COc1cc(-n2c([C@H](C)Nc3nc(N)ncc3C#N)cc3cccc(Cl)c3c2=O)ccc1F
42 | 100 to 1000 | < 100 | – | < 100 | > 10000 | COc1ccc(-c2cnc(N)nc2N[C@@H](C)c2cc3cccc(Cl)c3c(=O)n2-c2ccccc2)cn1
43 | < 100 | < 100 | > 10000 | < 100 | – | COc1ncc(-c2cnc(N)nc2N[C@@H](C)c2cc3cccc(Cl)c3c(=O)n2-c2ccccc2)s1
44 | < 100 | < 100 | < 100 | – | < 100 | C[C@H](Nc1nc(N)ncc1-c1csc(S(C)(=O)=O)n1)c1cc2cccc(Cl)c2c(=O)n1-c1ccccc1
45 | – | < 100 | > 10000 | < 100 | – | C[C@H](Nc1nc(N)ncc1C#N)c1cc2cccc(Cl)c2c(=O)n1-c1ccc(F)c(F)c1
46 | < 100 | < 100 | 100 to 1000 | – | < 100 | COc1nc(-c2cnc(N)nc2N[C@@H](C)c2cc3cccc(Cl)c3c(=O)n2-c2ccccc2)cs1
47 | < 100 | < 100 | > 10000 | – | > 10000 | C[C@H](Nc1nc(N)ncc1C#N)c1cc2cccc(Oc3ccccc3)c2c(=O)n1-c1ccccc1
48 | < 100 | < 100 | 100 to 1000 | – | 100 to 1000 | COc1cncc(-c2cccc3cc([C@H](C)Nc4nc(N)ncc4C#N)n(-c4ccccc4)c(=O)c23)c1
49 | < 100 | < 100 | > 10000 | – | > 10000 | COc1cc(-c2cccc3cc([C@H](C)Nc4nc(N)ncc4-c4ccc(O)c(F)c4)n(-c4ccccc4)c(=O)c23)ccn1
50 | < 100 | < 100 | 100 to 1000 | – | 100 to 1000 | CSc1ncc(-c2cnc(N)nc2N[C@@H](C)c2cc3cccc(Cl)c3c(=O)n2-c2ccccc2)s1
51 | < 100 | < 100 | 100 to 1000 | – | < 100 | C[C@H](Nc1ncnc(N)c1[N+](=O)[O-])c1cc2cccc(Cl)c2c(=O)n1-c1ccccc1
52 | < 100 | < 100 | 100 to 1000 | – | 100 to 1000 | COc1cncc(-c2cccc3cc([C@H](C)Nc4nc(N)ncc4C#N)n(C4CC4)c(=O)c23)c1
